Laboratory results reported in ChEMBL document CHEMBL1201862, “PubChem BioAssay data set” (2004).
Active and inactive are the calls of the source. For most assays here, no stated cut-off is given here; in the data, actives have a measured EC50 and inactives only a lower limit.

Columns and labels:
[1] = molecular target: T1, Zinc finger protein mex-5 (Caenorhabditis elegans, UniProt Q9XUB2); test: MEX-5/TCR-2 RNA interaction inhibitors, dose response, biochemical, C. elegans, fluorescence polarization (AID 1960)
T1 sequence (Q9XUB2 whole entry): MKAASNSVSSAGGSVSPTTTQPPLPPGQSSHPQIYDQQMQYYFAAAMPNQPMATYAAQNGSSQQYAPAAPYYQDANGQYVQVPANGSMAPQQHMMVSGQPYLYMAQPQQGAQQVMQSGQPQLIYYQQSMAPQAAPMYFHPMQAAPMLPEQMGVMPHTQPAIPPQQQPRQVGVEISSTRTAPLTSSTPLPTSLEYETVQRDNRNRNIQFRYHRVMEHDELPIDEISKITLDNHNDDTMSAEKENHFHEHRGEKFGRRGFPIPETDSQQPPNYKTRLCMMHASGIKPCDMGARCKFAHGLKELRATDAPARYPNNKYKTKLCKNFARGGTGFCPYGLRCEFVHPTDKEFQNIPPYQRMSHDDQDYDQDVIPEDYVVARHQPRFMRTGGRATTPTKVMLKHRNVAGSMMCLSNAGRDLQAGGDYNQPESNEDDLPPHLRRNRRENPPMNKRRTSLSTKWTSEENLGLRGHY

[2] = molecular target: T2, RNA-binding protein pos-1 (Caenorhabditis elegans, UniProt G5EF15); test: inhibitors of POS-1/mex-3 RNA binding, dose response, biochemical, fluorescence polarization (AID 1964);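 further: purified POS-1 fused to maltose binding protein made in E. coli; potency of compounds blocking POS-1 binding to fluorescent RNA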
T2 sequence (G5EF15 whole entry): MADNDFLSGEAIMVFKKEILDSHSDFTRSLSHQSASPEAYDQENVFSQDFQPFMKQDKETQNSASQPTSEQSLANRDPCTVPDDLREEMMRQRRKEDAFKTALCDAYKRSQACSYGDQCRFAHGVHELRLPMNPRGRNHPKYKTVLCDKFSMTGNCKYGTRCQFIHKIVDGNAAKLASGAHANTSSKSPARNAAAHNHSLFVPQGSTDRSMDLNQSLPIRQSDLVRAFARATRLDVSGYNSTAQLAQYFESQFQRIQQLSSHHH

Fatty acid synthase [3] = molecular target: T3, Fatty acid synthase (Homo sapiens, UniProt P49327); test: FAS thioesterase domain inhibitors, dose response, biochemical, kinetic fluorescence intensity (AID 624326); format: functional;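 further: rate of fluorescence rise from hydrolysis of a fluorogenic O-methyl fluorescein ester substrate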
Fatty acid synthase [4] = molecular target: T3, Fatty acid synthase; test: FAS thioesterase domain inhibitors, dose response, biochemical, endpoint fluorescence intensity, uHTS hits (AID 624327); format: functional;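 further: fluorescence from hydrolysis of an O-methyl fluorescein acyl ester substrate by the enzyme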
[5] = molecular target: T4, Histone-lysine N-methyltransferase NSD2 (Homo sapiens, UniProt O96028); format: biochemical
T4 sequence (O96028 whole entry): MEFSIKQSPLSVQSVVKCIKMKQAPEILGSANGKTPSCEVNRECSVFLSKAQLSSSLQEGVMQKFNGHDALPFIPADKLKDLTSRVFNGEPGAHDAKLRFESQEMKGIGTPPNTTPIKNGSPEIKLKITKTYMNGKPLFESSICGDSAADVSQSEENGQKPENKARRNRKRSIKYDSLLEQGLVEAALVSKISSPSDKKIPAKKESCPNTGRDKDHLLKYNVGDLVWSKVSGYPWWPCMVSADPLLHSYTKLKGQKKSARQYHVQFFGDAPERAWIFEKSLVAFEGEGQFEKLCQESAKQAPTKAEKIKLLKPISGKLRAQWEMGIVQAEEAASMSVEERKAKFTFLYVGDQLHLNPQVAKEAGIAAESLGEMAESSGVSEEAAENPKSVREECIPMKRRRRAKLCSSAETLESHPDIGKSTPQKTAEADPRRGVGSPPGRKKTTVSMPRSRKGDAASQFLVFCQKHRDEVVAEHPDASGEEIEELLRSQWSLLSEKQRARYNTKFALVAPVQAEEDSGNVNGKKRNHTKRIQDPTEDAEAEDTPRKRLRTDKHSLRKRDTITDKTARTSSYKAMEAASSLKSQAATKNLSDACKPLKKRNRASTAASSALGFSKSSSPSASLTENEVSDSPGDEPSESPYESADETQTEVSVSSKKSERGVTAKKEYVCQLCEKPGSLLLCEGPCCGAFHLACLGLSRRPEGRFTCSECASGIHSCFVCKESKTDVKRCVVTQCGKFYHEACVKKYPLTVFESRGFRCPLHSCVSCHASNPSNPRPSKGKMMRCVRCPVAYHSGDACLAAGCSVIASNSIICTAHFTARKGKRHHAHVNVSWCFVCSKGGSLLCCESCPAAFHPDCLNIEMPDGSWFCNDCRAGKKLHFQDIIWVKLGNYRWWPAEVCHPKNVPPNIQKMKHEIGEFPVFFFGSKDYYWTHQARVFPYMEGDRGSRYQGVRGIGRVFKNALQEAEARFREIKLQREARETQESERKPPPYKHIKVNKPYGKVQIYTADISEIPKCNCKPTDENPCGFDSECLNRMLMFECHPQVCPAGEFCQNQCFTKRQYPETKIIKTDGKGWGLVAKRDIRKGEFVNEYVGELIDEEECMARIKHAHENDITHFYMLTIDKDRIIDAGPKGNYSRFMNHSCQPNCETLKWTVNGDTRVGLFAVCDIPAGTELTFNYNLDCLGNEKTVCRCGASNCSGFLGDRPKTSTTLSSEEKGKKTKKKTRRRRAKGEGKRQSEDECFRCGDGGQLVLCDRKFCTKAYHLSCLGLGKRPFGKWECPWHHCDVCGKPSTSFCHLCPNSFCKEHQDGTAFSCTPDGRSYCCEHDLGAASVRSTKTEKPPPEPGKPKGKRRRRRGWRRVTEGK

[6] = molecular target: T5, Rac GTPase-activating protein 1 (Homo sapiens, UniProt Q9H0H5); test: MgcRacGAP GTPase-activating activity inhibitors, confirmation, biochemical, ADP Hunter fluorescence, primary and confirmatory (AID 624330); format: functional
T5 sequence (Q9H0H5 whole entry): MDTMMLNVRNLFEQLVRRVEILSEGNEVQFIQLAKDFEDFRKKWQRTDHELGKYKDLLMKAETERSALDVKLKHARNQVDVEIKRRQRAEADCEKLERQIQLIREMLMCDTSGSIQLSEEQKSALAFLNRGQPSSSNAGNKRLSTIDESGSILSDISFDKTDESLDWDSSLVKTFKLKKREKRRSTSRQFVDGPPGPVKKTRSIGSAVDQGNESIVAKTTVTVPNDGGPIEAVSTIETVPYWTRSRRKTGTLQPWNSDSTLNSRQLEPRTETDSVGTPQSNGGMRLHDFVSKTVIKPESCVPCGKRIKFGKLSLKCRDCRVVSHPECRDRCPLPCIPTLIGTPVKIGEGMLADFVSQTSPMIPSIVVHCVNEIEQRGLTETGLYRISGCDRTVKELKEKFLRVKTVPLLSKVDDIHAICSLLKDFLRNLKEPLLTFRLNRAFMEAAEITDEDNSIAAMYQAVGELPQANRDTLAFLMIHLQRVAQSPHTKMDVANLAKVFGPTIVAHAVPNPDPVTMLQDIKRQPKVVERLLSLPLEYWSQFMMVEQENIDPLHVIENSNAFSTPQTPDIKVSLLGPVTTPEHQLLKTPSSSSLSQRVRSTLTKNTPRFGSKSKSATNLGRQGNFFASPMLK

BJ [7] = test: cells; format: functional, cell-based; settings: Homo sapiens
[8] = molecular target: T6, Heat shock factor protein 1 (Mus musculus, UniProt P38532); test: inhibition of MG132-induced HSE-luciferase signal, confirmation, cell-based, NIH3T3, luminescence, dose retest (AID 2382); format: functional;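 further: NIH3T3 fibroblasts with HSF1-driven luciferase reporter stressed by proteasome inhibitor MG132; luminescence from HSF1-driven luciferase expression after 8 hours of MG132 stress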
T6 sequence (P38532 whole entry): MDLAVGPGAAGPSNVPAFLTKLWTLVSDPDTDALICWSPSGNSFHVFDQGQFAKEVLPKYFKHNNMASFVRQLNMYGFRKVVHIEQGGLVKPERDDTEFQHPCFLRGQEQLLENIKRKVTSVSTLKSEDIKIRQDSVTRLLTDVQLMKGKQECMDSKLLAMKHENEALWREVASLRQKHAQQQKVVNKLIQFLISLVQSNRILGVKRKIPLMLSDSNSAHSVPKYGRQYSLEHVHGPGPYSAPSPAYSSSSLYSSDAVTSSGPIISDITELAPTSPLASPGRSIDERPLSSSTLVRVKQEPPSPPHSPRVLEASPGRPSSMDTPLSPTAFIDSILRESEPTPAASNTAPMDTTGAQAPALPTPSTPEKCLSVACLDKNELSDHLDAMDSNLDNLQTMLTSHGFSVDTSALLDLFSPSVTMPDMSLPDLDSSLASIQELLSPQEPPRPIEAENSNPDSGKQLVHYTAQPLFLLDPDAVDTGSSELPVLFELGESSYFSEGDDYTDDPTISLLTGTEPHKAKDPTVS

BJ [9] = test: cytotoxicity toward BJ-TERT fibroblasts, dose response, cell-based, RAS-independent, luminescence (AID 1933); format: functional; settings: Homo sapiens
BJ [10] = test: cytotoxicity toward BJ-TERT-LT-ST fibroblasts, dose response, cell-based, RAS-independent, luminescence (AID 1935); format: functional; settings: Homo sapiens;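 further: BJ fibroblasts immortalized with TERT plus LT and ST oncogenes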
[11] = cytotoxicity toward DRD oncogenic fibroblasts, dose response, cell-based, non-viral oncogenic, luminescence (AID 1934); format: functional; settings: Homo sapiens
cells [12] = format: functional, cell-based
cells [13] = format: functional, cell-based; remark: listed apart in the source
[14] = molecular target: Luciferin 4-monooxygenase (Photinus pyralis, UniProt P08659); test: firefly luciferase enzyme inhibitors, dose response, biochemical, luminescence (AID 1891)
[15] = Luminescence Cell-Based Dose Confirmation HTS to Identify Inhibitors of Platelet Dense Granule Release. [Related pubchem assays: 1663 (Primary HTS), 1678 (Summary of Project)]; format: functional
Paired box protein Pax-8 = Paired box protein Pax-8 (Homo sapiens, UniProt Q06710); test: inhibitors of PAX8-driven TPO luciferase reporter, dose response, RMG-I cells, cherry-pick (AID 687027); format: functional, cell-based;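 further: luciferase reporter driven by Pax8 target thyroperoxidase promoter measured by SteadyGlo luminescence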
[16] = inhibitors of SNCA 5'UTR-driven reporter translation, confirmation, H4 neuroglioma cells, luminescence (AID 1988); format: functional, cell-based
[17] = inhibitors of firefly luciferase expression or activity, dose response, H4 neuroglioma cells, luminescence (AID 1990); format: functional, cell-based
[18] = Luminescence Cell-Based Dose Response HTS to Identify Inhibitors of 5'UTR Stem-Loop Driven Prion Protein mRNA Translation in H4 Neuroglioblastoma Cells. [Related pubchem assays: 1827 (Project Summary), 1813 (Primary HTS)]; format: functional
[19] = cytotoxicity in HEK-293T cells, dose response, cytotoxicity control for TCR NF-kB inhibitor project, luminescence, T-cell screen hits (AID 489026); format: functional, cell-based;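 further: cells exposed to compound about 14 hours before the viability readout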

T3 sequence (P49327 whole entry, the tested form may be a part): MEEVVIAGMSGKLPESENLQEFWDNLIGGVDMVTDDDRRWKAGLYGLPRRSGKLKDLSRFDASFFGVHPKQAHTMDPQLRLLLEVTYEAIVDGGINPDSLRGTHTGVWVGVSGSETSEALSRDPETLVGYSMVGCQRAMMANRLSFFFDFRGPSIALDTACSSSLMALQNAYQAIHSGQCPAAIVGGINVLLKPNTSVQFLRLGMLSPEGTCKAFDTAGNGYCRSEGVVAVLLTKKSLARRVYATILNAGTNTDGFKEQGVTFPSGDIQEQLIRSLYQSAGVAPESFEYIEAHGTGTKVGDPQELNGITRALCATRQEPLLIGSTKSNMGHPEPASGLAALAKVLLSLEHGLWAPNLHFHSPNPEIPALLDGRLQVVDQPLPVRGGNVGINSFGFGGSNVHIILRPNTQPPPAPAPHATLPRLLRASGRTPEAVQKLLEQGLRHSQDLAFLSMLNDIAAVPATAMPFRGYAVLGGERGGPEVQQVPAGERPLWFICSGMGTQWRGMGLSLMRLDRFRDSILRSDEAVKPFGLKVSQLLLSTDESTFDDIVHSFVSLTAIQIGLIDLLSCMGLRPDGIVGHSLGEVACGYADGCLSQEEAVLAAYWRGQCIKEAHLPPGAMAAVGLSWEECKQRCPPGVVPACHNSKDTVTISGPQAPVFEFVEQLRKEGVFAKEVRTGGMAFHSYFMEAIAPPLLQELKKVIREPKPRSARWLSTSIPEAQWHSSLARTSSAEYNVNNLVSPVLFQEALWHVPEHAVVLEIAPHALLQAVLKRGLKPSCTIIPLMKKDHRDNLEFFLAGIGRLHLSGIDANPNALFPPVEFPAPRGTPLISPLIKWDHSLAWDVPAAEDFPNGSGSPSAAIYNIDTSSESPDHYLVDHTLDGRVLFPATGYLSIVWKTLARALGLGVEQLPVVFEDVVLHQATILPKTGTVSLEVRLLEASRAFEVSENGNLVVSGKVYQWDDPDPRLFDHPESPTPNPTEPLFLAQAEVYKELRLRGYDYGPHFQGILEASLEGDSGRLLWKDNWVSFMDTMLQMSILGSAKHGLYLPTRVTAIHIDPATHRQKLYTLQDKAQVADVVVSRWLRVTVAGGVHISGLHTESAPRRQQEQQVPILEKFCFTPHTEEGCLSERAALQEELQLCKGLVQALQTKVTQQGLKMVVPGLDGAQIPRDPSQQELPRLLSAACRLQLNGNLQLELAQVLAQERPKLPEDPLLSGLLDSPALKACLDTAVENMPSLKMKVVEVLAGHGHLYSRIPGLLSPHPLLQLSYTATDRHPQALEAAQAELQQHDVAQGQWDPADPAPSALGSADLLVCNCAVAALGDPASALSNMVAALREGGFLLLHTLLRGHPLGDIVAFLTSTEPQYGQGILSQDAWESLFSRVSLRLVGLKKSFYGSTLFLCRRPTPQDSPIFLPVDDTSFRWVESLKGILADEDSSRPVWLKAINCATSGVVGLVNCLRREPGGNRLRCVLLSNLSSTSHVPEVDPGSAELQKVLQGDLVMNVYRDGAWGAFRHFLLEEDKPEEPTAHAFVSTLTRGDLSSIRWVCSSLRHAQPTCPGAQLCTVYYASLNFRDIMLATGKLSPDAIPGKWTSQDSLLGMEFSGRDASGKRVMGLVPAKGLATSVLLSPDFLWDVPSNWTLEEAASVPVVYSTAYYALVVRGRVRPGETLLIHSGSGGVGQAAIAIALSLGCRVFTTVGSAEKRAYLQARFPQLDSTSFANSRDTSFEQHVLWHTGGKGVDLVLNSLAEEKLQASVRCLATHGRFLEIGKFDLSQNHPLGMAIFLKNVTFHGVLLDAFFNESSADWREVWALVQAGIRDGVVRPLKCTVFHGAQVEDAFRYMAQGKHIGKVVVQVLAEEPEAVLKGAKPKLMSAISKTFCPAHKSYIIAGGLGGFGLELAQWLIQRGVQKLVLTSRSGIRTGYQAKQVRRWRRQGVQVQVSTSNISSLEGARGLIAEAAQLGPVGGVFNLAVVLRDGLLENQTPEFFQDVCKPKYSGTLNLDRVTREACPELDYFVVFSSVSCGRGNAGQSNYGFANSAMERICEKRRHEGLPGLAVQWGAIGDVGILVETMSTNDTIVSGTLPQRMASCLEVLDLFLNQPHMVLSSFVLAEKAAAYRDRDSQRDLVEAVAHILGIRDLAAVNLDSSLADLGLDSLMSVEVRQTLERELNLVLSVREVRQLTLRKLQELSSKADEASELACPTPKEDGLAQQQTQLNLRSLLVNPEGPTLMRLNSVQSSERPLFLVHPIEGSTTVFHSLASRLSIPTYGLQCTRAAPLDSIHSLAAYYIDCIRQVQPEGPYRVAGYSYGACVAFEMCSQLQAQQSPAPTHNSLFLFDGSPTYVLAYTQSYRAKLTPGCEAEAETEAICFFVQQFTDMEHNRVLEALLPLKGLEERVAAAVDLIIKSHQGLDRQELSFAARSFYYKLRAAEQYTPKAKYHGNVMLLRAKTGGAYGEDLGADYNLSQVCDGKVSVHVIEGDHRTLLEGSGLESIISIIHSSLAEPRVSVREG
Sequence of Luciferin 4-monooxygenase (P08659 whole entry): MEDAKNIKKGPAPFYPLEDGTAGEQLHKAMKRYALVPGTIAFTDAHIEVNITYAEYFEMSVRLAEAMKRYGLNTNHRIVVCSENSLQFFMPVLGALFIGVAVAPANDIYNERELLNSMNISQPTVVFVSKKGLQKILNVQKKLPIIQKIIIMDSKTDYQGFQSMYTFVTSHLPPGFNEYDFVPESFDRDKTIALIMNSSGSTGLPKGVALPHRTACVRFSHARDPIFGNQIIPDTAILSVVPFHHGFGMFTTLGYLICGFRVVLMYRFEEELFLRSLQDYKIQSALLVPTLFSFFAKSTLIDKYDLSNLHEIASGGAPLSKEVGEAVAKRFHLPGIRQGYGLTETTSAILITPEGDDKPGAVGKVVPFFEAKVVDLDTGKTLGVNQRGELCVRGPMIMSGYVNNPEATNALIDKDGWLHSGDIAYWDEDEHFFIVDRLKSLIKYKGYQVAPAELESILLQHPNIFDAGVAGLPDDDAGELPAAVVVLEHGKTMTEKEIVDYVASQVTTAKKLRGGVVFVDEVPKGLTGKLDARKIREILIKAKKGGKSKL
Sequence of Paired box protein Pax-8 (Q06710 whole entry): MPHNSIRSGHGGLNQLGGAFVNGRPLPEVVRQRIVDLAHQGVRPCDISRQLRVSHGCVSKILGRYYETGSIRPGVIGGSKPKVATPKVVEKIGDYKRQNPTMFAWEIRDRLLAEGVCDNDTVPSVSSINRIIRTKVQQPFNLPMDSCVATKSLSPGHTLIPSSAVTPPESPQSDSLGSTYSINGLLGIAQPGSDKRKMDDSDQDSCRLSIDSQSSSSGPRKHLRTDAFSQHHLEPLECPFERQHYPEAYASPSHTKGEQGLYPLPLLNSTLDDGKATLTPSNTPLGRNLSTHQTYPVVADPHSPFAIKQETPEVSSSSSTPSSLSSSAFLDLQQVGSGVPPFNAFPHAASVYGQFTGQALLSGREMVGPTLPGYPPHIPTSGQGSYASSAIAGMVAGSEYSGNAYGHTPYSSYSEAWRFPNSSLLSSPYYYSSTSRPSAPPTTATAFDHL

Cc1ccc(-c2nnc(Nc3ccc(CC(N)=O)cc3)c3ccccc23)cc1S(N)(=O)=O
EC50 [1]: > 300 µM (not active)
EC50 [2]: > 300 µM (not active)

O=C(CC1C[C@H](C(=O)N2CCOCC2)[C@@]2(CCC3CCCC3)c3[nH]c4ccccc4c3CCN2C1=O)NCCc1ccccn1 (some centres not stated)
IC50 (Fatty acid synthase [3]): 1.09 µM (active)
IC50 (Fatty acid synthase [4]): 1.37 µM (active)

CCOc1ccccc1N1CCN(C/C=C/c2ccc(N(C)C)cc2)CC1
AC50 [5]: 15.5 µM (active)
IC50 [6]: 75.8 µM (active)

O=C(O)c1ccc(CN2C(=O)c3cccc4c([N+](=O)[O-])ccc(c34)C2=O)cc1
EC50 (BJ [7]): 12.9 µM (active)
EC50 [8]: 6.53 µM (active)
EC50 (BJ [9]): 9.19 µM (active)
EC50 (BJ [10]): 10.6 µM (inconclusive)
EC50 [11]: 10.9 µM (inconclusive)

Cc1cc(=O)n2c(n1)/C(=N\Nc1ccccc1)C(=O)N2
EC50 [8]: > 195 µM (not active)
EC50 [2]: 0.374 µM (inconclusive)

Cn1c(N/N=C/c2cc3ccccc3nc2Cl)nc2ccccc21
EC50 (BJ [7]): 2.58 µM (active)
EC50 (cells [12]): 7.59 µM (active)
EC50 (BJ [9]): 6.15 µM (inconclusive)
EC50 (cells [13]): > 350 µM (not active)
EC50 (BJ [10]): > 150 µM (not active)
EC50 [14]: 0.687 µM (active)
EC50 [15]: 6.52 µM (active)
EC50 [11]: 25.7 µM (active)

O=C(N/N=C/c1ccc(Br)o1)/C(=C/c1ccc([N+](=O)[O-])cc1)NC(=O)c1ccccc1
IC50 (Fatty acid synthase [3]): 10.8 µM (active)
IC50 (Fatty acid synthase [4]): 9.86 µM (active)

CC(=O)c1cccc(Nc2c3c(nc4ccccc24)CCC3)c1
EC50 (BJ [7]): 30.6 µM (inconclusive)
EC50 (BJ [9]): 2.21 µM (active)
EC50 (BJ [10]): 1.11 µM (active)
EC50 [11]: 0.898 µM (active)

CC(C)(C)c1ccc(/C=N/NC(=S)NC2CCCCC2)cc1
IC50 (Fatty acid synthase [3]): 15.4 µM (active)
IC50 (Fatty acid synthase [4]): 12.7 µM (active)

COC(=O)c1c(O)[n+]([O-])c2ccc(OC)cc2[n+]1[O-]
EC50 [1]: > 300 µM (inconclusive)
EC50 [2]: 14.1 µM (active)

CCCCC1=CC2=CC(=O)C(C)(O)C(=O)C2=CO1 (configuration not stated)
EC50 [1]: 23.5 µM (active)
EC50 [2]: 55.3 µM (active)

CC1=N/C(=C/c2ccco2)C(=O)O1
EC50 [1]: 33.1 µM (active)
EC50 [2]: 71.1 µM (active)

Cc1ccc(NC(=O)c2cc([N+](=O)[O-])ccc2N2CCCC2)cc1
IC50 (Fatty acid synthase [3]): 5.53 µM (active)
IC50 (Fatty acid synthase [4]): 8.09 µM (active)

C/C(=N/N=C/c1ccc(N(C)C)cc1)c1ccccc1
EC50 (BJ [7]): 13.5 µM (active)
EC50 (BJ [9]): 26.5 µM (active)
EC50 (BJ [10]): > 150 µM (not active)
EC50 [14]: 0.875 µM (active)
EC50 [15]: 1.61 µM (active)
EC50 [11]: 17.1 µM (active)

C[C@H](CO)N1C[C@H](C)[C@@H](CN(C)Cc2ccc(Cl)c(Cl)c2)Oc2c(NS(=O)(=O)c3ccc(F)cc3)cccc2C1=O
IC50 (Fatty acid synthase [3]): 13.2 µM (active)
IC50 (Fatty acid synthase [4]): 11.9 µM (active)

Cc1ccc(C(=O)c2cc([N+](=O)[O-])ccc2N2CCCCC2)cc1
EC50 (BJ [7]): 82.5 µM (inconclusive)
AC50 (Paired box protein Pax-8): 3.39 µM (active)
EC50 (BJ [9]): 0.493 µM (inconclusive)
EC50 [16]: < 0.1 µM (active)
EC50 (BJ [10]): 0.576 µM (inconclusive)
EC50 [17]: 0.129 µM (active)
EC50 [18]: 0.303 µM (active)
EC50 [11]: 1.21 µM (active)
IC50 [19]: > 80 µM (inactive)

CCOc1ccc(C(=O)COC(=O)c2cc([N+](=O)[O-])ccc2N2CCOCC2)cc1
IC50 (Fatty acid synthase [3]): 5.81 µM (active)
IC50 (Fatty acid synthase [4]): 6.76 µM (active)

O=C1c2cc(O)c(O)cc2OC(c2ccc(O)c(O)c2)C1O (configuration not stated)
AC50 [5]: 12.9 µM (active)
